Laboratory results reported in publication PMC6173406, “Design and evaluation of selective butyrylcholinesterase inhibitors based on Cinchona alkaloid scaffold” (PLoS ONE, 2018).
Read-outs that look alike come from different tables or passages of the source.

Key:
human BChE = molecular target: T1, human BChE (Homo sapiens, UniProt P06276); assay: Reversible inhibition of human BChE, Ellman method with ATCh, Hunter-Downs analysis; assay type: biochemical; parameters: key to BChE type of inhibition: c, n and m stands for competitive, noncompetitive and mixed type of inhibition; c, n and m stands for competitive, noncompetitive and mixed type of inhibition; c, n and m stands for competitive, noncompetitive and mixed type of inhibition; settings: for BChE Ks: enzyme-substrate (ATCh) dissociation constant derived from the inhibition kinetics with the compound; for Ki(AChE)/ Ki (BChE): inhibition selectivity, ratio of Ki constants for AChE and BChE; for BChE type of inhibition: symbol in brackets after Ki; for BChE affinity lower compared to CD-(pBr): fold lower affinity than CD-(pBr)
T1 construct: gift of Dr. F. Nachon (Département de Toxicologie, Armed Forces Biomedical Research Institute, France)
T1 sequence (P06276 29-602): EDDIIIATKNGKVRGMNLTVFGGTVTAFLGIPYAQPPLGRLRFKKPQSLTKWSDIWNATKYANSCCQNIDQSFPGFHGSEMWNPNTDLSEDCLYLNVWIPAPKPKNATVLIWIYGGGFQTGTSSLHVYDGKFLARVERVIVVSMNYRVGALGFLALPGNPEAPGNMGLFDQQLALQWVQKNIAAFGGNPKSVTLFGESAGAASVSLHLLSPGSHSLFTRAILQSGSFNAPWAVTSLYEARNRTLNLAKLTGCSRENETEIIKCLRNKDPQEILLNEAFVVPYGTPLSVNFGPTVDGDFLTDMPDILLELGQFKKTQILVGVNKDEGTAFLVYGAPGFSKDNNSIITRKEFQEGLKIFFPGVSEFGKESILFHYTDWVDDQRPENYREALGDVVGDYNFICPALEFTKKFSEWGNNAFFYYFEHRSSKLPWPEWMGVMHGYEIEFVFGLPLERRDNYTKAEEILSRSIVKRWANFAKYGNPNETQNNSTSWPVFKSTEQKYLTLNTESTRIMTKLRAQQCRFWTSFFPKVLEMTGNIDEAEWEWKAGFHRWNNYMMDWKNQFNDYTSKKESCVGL
Description: (§1) Purified human BChE and recombinant human AChE were kindly provided by Dr. F. Nachon (Département de Toxicologie, Armed Forces Biomedical Research Institute, France). The concentration of enzymes (BChE: 5.6 μM; AChE: 0.20 μM) was determined as described previously. The concentrated stocks of enzymes were diluted in a phosphate sodium buffer 0.1 M (pH 7.4) containing 0.1% BSA.
(§2) Enzyme activities were measured spectrophotometrically by Ellman method at 412 nm using 0.30 mM DTNB as thiol reagent and ATCh (0.050–0.50 mM) as substrate in 0.1 M phosphate buffer, pH 7.4 [29, 30]. For the inhibition, the reaction mixture also contained cinchonidines or cinchonines (final concentrations 0.020–200 μM, depending on compound). In the case of compounds CD-(pCl) and CN-(pCl), the final content of DMSO was the same in enzyme activity measurement and in inhibition measurements, up to 0.32%. No side interactions of tested compounds with ATCh or DTNB were detected. Measurements were done at 25 °C on a Tecan Infinite M200Pro plate reader (Austria).
(§3) The reversible inhibition of BChE and AChE by cinchonines and cinchonidines was measured by determining the decrease of enzyme activity towards ATCh (0.050–0.50 mM) in their presence. The activities of the enzymes were measured at different substrate concentrations ([S]) in the absence (v0) and presence (vi) of given cinchonines and cinchonidines concentration ([I]) selected to inhibit the enzymes for 20–80%. At least three concentrations of inhibitors for each substrate concentration were used in at least two experiments. The apparent dissociation inhibition constant (Ki,app) was calculated using the Hunter-Downs equation and the linear regression analysis: Ki,app=vi/v0−vi⋅[I]=K(I)+K(I)/K(S)⋅[S] where y-intercept determines the enzyme-inhibitor dissociation constants (K(I)), while x-intercept determines the enzyme-substrate dissociation constant, K(S). The equation was used with the assumption that the substrate, due to relatively low substrate concentrations used in experiments, binds only to the catalytic site, while inhibitor can bind to both sites catalytic and peripheral site. In other words, if the inhibitor competes with substrate for binding to the catalytic site of the enzyme, Ki,app proportionally depend on the substrate concentration. […] The curve means that the inhibitor binds not only to the catalytic or peripheral site but also to intermediates of Michaelis type of the enzyme-substrate complex.

human AChE = molecular target: T2, human AChE (Homo sapiens, UniProt P22303); assay: Reversible inhibition of human AChE, Ellman method with ATCh, Hunter-Downs analysis; assay type: biochemical; parameters: key to AChE type of inhibition: c, n and m stands for competitive, noncompetitive and mixed type of inhibition; c, n and m stands for competitive, noncompetitive and mixed type of inhibition; c, n and m stands for competitive, noncompetitive and mixed type of inhibition; settings: for Ki: enzyme-inhibitor dissociation constant ± standard error, ATCh 0.050–0.50 mM, pH 7.4, 25 °C; for AChE type of inhibition: symbol in brackets after Ki; for AChE Ks: enzyme-substrate (ATCh) dissociation constant derived from the inhibition kinetics with the compound
T2 construct: gift of Dr. F. Nachon (Département de Toxicologie, Armed Forces Biomedical Research Institute, France)
T2 sequence (P22303 32-614): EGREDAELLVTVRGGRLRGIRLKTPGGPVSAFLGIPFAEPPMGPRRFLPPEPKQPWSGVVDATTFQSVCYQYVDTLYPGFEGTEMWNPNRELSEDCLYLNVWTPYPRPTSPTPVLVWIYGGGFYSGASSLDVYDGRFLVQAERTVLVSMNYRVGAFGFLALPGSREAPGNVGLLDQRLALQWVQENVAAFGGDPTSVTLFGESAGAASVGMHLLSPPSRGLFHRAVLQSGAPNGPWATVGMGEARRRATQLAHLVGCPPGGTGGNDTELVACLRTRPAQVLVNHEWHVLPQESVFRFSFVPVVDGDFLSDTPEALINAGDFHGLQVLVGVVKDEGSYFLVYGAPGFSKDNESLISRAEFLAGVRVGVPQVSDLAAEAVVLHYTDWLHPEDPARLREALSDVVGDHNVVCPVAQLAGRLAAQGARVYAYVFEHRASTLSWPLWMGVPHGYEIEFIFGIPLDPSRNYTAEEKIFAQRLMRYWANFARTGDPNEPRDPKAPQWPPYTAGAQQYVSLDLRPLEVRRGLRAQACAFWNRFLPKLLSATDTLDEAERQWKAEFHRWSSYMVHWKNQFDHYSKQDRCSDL
Description: as §1, §2, §3

[1] = enzyme-inhibitor dissociation constant ± standard error, ATCh 0.050–0.50 mM, pH 7.4, 25 °C

SMILES | Ki (human BChE; [1]) [µM] | BChE Ks (human BChE) [mM] | Ki(AChE)/ Ki (BChE) (human BChE) | BChE type of inhibition (human BChE) | Ki (human AChE) [µM] | AChE type of inhibition (human AChE) | BChE affinity lower compared to CD-(pBr) (human BChE) | AChE Ks (human AChE) [mM] | Ki (human BChE) [µM] | AChE stereoselectivity Ki(CN/CD) (human AChE; ratio of Ki of cinchonine to Ki of the pseudo-enantiomeric cinchonidine) | BChE inhibition potency compared to CD-Met (human BChE; fold more potent than CD-Met) [times] | AChE affinity lower than for the highest-affinity compounds (human AChE; compared to CD-(mNO2) and CD-(mCH3))
C=CC1C[N+]2(Cc3ccc([N+](=O)[O-])cc3)CCC1CC2C(O)c1ccnc2ccccc12 (centres unmarked) [CN-(pNO2)] | 7.6 ± 0.7 | 0.32 ± 0.04 | 6.6 | c | 51 ± 2 | n | – | – | – | – | – | –
C=CC1C[N+]2(C)CCC1CC2C(O)c1ccnc2ccccc12 (centres unmarked) [CD-Met] | 26 ± 4 | 0.70 ± 0.22 | – | c | 67 ± 6 | c | approximately 730 times | 0.70 ± 0.17 | – | – | – | –
C=CC1C[N+]2(Cc3ccc(C)cc3)CCC1CC2C(O)c1ccnc2ccccc12 (centres unmarked) [CN-(pCH3), N-(4-methylbenzyl) cinchoninium bromide] | 3.1 ± 0.3 | 0.33 ± 0.05 | 13 | c | 42 ± 2 | c | – | 2.0 ± 0.2 | – | – | – | –
C=CC1C[N+]2(Cc3cccc(C)c3)CCC1CC2C(O)c1ccnc2ccccc12 (centres unmarked) [CD-(mCH3), N-(3-methylbenzyl) cinchonidinium bromide] | 0.077 ± 0.006 | 0.52 ± 0.08 | 39 | m | 3 ± 0.3 | m | – | 0.63 ± 0.14 | ≤ 0.1 | 16 | – | –
C=CC1C[N+]2(Cc3cccc(Cl)c3)CCC1CC2C(O)c1ccnc2ccccc12 (centres unmarked) [CD-(mCl), N-(3-chlorobenzyl) cinchonidinium chloride] | 0.24 ± 0.01 | 0.53 ± 0.05 | 95 | m | 23 ± 1 | c | – | 0.74 ± 0.08 | – | – | – | –
C=CC1C[N+]2(Cc3cccc(Br)c3)CCC1CC2C(O)c1ccnc2ccccc12 (centres unmarked) [CD-(mBr), N-(3-bromobenzyl) cinchonidinium bromide] | 0.6 ± 0.03 | 0.50 ± 0.05 | 33 | m | 20 ± 1 | m | – | 0.91 ± 0.08 | – | – | 44 | –
C=C[C@H]1CN2CC[C@H]1C[C@H]2[C@H](O)c1ccnc2ccccc12 [CD, cinchonidine, reference compound] | 28 ± 4 | 0.25 ± 0.05 | ~14 | c | > 400 | – | – | – | – | – | – | about 160 times
C=C[C@H]1C[N@@]2CC[C@H]1C[C@@H]2[C@@H](O)c1ccnc2ccccc12 [CN, cinchonine, reference compound] | 4.9 ± 1.4 | 0.50 ± 0.27 | – | c | 34 ± 1 | c | – | 0.25 ± 0.01 | – | – | – | –
C=CC1C[N+]2(C)CCC1CC2C(O)c1ccnc2ccccc12 (centres unmarked) [CN-Met] | 29 ± 4 | 0.35 ± 0.07 | – | c | 42 ± 4 | c | approximately 730 times | 0.32 ± 0.05 | – | – | – | –
C=CC1C[N+]2(Cc3ccc(Cl)cc3)CCC1CC2C(O)c1ccnc2ccccc12 (centres unmarked) [CD-(pCl)] | 0.1 ± 0.01 | 0.42 ± 0.05 | 350 | c | 37 ± 4 | n | – | – | ≤ 0.1 | – | – | –
C=CC1C[N+]2(Cc3cccc(Cl)c3)CCC1CC2C(O)c1ccnc2ccccc12 (centres unmarked) [CN-(mCl)] | 5.4 ± 0.5 | 0.63 ± 0.12 | 10 | m | 56 ± 8 | c | – | 0.19 ± 0.03 | – | – | – | –
